Article PMC10794144, “A novel antibiotic class targeting the lipopolysaccharide transporter” (Nature, 2024)
In brackets after ≈: the same amount, converted by molar mass. Read-outs that look alike come from different tables or passages of the source.

Tested on: A. baumannii
Assay: microbe, parasite or virus in culture
Conditions: Acinetobacter baumannii, 100%
Procedure, shortened: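 CLSI broth microdilution (M07/M100); inoculum from 0.5 McFarland suspension diluted in CAMHB; MIC = lowest concentration with no visible growth or where OD600 stops falling.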

Compound C[C@@H](O)[C@H]1C(=O)N2C(C(=O)O)=C(S[C@@H]3CN[C@H](C(=O)N(C)C)C3)[C@H](C)[C@H]12 [meropenem, reference compound] has an MIC (read-out: MIC 100%, ROB08701, Study ROC012) of 0.5 µg/mL (≈ 1.3 µM), an MIC (read-out: MIC 100%, ROB08701, Study ROC013) of 1 µg/mL (≈ 2.61 µM) and an MIC (read-out: MIC 100%, ROB08702, Study LGC277937) of 32 µg/mL (≈ 83.4 µM). It also gave an MIC (read-out: MIC 100%, ROB08702, Study LGC279800) of 32 µg/mL (≈ 83.4 µM), an MIC (read-out: MIC 100%, ROB08702, Study LGC281440) of 16 µg/mL (≈ 41.7 µM) and an MIC (read-out: MIC 100%, ROB08702, Study LGC282160) of 64 µg/mL (≈ 167 µM). The MIC (read-out: MIC 100%, ROB08702, Study LGC282623) was 32 µg/mL (≈ 83.4 µM), the MIC (read-out: MIC 100%, ROB08702, Study LGC283932) was 32 µg/mL (≈ 83.4 µM) and the MIC (read-out: MIC 100%, ROB08702, Study LGC284200) was 32 µg/mL (≈ 83.4 µM). For the same compound, the MIC (read-out: MIC 100%, ROB08702, Study LGC284879) was 8 µg/mL (≈ 20.9 µM), the MIC (read-out: MIC 100%, ROB08702, Study LGC285582) was 32 µg/mL (≈ 83.4 µM) and the MIC (read-out: MIC 100%, ROB08702, Study LGC286210) was 32 µg/mL (≈ 83.4 µM). The MIC (read-out: MIC 100%, ROB08702, Study LGC293598) was 32 µg/mL (≈ 83.4 µM), the MIC (read-out: MIC 100%, ROB08702, Study LGC294355) was 16 µg/mL (≈ 41.7 µM) and the MIC (read-out: MIC 100%, ROB08702, Study LGC295147) was 16 µg/mL (≈ 41.7 µM). For the same compound, the MIC (read-out: MIC 100%, ROB08702, Study LGC296813) was 16 µg/mL (≈ 41.7 µM), the MIC (read-out: MIC 100%, ROB08702, Study LGC299544) was 32 µg/mL (≈ 83.4 µM) and the MIC (read-out: MIC 100%, ROB08702, Study LGC301026) was 16 µg/mL (≈ 41.7 µM). For the same compound, the MIC (read-out: MIC 100%, ROB08702, Study LGC308175) was 32 µg/mL (≈ 83.4 µM), the MIC (read-out: MIC 100%, ROB08702, Study ROC003) was 16 µg/mL (≈ 41.7 µM) and the MIC (read-out: MIC 100%, ROB08702, Study ROC004) was 32 µg/mL (≈ 83.4 µM). It also gave an MIC (read-out: MIC 100%, ROB08702, Study ROC005) of 32 µg/mL (≈ 83.4 µM), an MIC (read-out: MIC 100%, ROB08702, Study ROC006) of 64 µg/mL (≈ 167 µM) and an MIC (read-out: MIC 100%, ROB08702, Study ROC007) of 32 µg/mL (≈ 83.4 µM). For the same compound, the MIC (read-out: MIC 100%, ROB08702, Study ROC008) was 16 µg/mL (≈ 41.7 µM), the MIC (read-out: MIC 100%, ROB08702, Study ROC009) was 16 µg/mL (≈ 41.7 µM) and the MIC (read-out: MIC 100%, ROB08702, Study ROC010) was 32 µg/mL (≈ 83.4 µM). It also gave an MIC (read-out: MIC 100%, ROB08702, Study ROC012) of 32 µg/mL (≈ 83.4 µM), an MIC (read-out: MIC 100%, ROB08702, Study ROC013) of 32 µg/mL (≈ 83.4 µM) and an MIC (read-out: MIC 100%, ROB08703, Study LGC277937) of 64 µg/mL (≈ 167 µM). It also gave an MIC (read-out: MIC 100%, ROB08703, Study LGC279800) of over 64 µg/mL, an MIC (read-out: MIC 100%, ROB08703, Study LGC281440) of 64 µg/mL (≈ 167 µM) and an MIC (read-out: MIC 100%, ROB08703, Study LGC282160) of 64 µg/mL (≈ 167 µM). It also gave an MIC (read-out: MIC 100%, ROB08703, Study LGC282623) of 64 µg/mL (≈ 167 µM), an MIC (read-out: MIC 100%, ROB08703, Study LGC283932) of over 64 µg/mL and an MIC (read-out: MIC 100%, ROB08703, Study LGC284200) of 64 µg/mL (≈ 167 µM). The MIC (read-out: MIC 100%, ROB08703, Study LGC284879) was over 64 µg/mL, the MIC (read-out: MIC 100%, ROB08703, Study LGC285582) was over 64 µg/mL and the MIC (read-out: MIC 100%, ROB08703, Study LGC286210) was 64 µg/mL (≈ 167 µM). The MIC (read-out: MIC 100%, ROB08703, Study LGC293598) was over 64 µg/mL, the MIC (read-out: MIC 100%, ROB08703, Study LGC294355) was 64 µg/mL (≈ 167 µM) and the MIC (read-out: MIC 100%, ROB08703, Study LGC295147) was 64 µg/mL (≈ 167 µM). The MIC (read-out: MIC 100%, ROB08703, Study LGC296813) was 64 µg/mL (≈ 167 µM), the MIC (read-out: MIC 100%, ROB08703, Study LGC299544) was over 64 µg/mL and the MIC (read-out: MIC 100%, ROB08703, Study LGC301026) was 64 µg/mL (≈ 167 µM). The MIC (read-out: MIC 100%, ROB08703, Study LGC308175) was 64 µg/mL (≈ 167 µM), the MIC (read-out: MIC 100%, ROB08703, Study ROC003) was 64 µg/mL (≈ 167 µM) and the MIC (read-out: MIC 100%, ROB08703, Study ROC004) was 64 µg/mL (≈ 167 µM). For the same compound, the MIC (read-out: MIC 100%, ROB08703, Study ROC005) was over 64 µg/mL, the MIC (read-out: MIC 100%, ROB08703, Study ROC006) was 64 µg/mL (≈ 167 µM) and the MIC (read-out: MIC 100%, ROB08703, Study ROC007) was over 64 µg/mL. It also gave an MIC (read-out: MIC 100%, ROB08703, Study ROC008) of 64 µg/mL (≈ 167 µM), an MIC (read-out: MIC 100%, ROB08703, Study ROC009) of 64 µg/mL (≈ 167 µM) and an MIC (read-out: MIC 100%, ROB08703, Study ROC010) of 64 µg/mL (≈ 167 µM). It also gave an MIC (read-out: MIC 100%, ROB08703, Study ROC012) of 64 µg/mL (≈ 167 µM), an MIC (read-out: MIC 100%, ROB08703, Study ROC013) of over 64 µg/mL and an MIC (read-out: MIC 100%, ROB08704, Study LGC277937) of 64 µg/mL (≈ 167 µM). The MIC (read-out: MIC 100%, ROB08704, Study LGC279800) was 64 µg/mL (≈ 167 µM), the MIC (read-out: MIC 100%, ROB08704, Study LGC281440) was 32 µg/mL (≈ 83.4 µM) and the MIC (read-out: MIC 100%, ROB08704, Study LGC282160) was 32 µg/mL (≈ 83.4 µM). The MIC (read-out: MIC 100%, ROB08704, Study LGC282623) was 64 µg/mL (≈ 167 µM), the MIC (read-out: MIC 100%, ROB08704, Study LGC283932) was 32 µg/mL (≈ 83.4 µM) and the MIC (read-out: MIC 100%, ROB08704, Study LGC284200) was 32 µg/mL (≈ 83.4 µM). The MIC (read-out: MIC 100%, ROB08704, Study LGC284879) was 64 µg/mL (≈ 167 µM), the MIC (read-out: MIC 100%, ROB08704, Study LGC285582) was 32 µg/mL (≈ 83.4 µM) and the MIC (read-out: MIC 100%, ROB08704, Study LGC286210) was 64 µg/mL (≈ 167 µM). The MIC (read-out: MIC 100%, ROB08704, Study LGC293598) was 32 µg/mL (≈ 83.4 µM), the MIC (read-out: MIC 100%, ROB08704, Study LGC294355) was 64 µg/mL (≈ 167 µM) and the MIC (read-out: MIC 100%, ROB08704, Study LGC295147) was 64 µg/mL (≈ 167 µM). It also gave an MIC (read-out: MIC 100%, ROB08704, Study LGC296813) of 32 µg/mL (≈ 83.4 µM), an MIC (read-out: MIC 100%, ROB08704, Study LGC299544) of 32 µg/mL (≈ 83.4 µM) and an MIC (read-out: MIC 100%, ROB08704, Study LGC301026) of 32 µg/mL (≈ 83.4 µM). For the same compound, the MIC (read-out: MIC 100%, ROB08704, Study LGC308175) was 64 µg/mL (≈ 167 µM), the MIC (read-out: MIC 100%, ROB08704, Study ROC003) was 64 µg/mL (≈ 167 µM) and the MIC (read-out: MIC 100%, ROB08704, Study ROC004) was 64 µg/mL (≈ 167 µM). It also gave an MIC (read-out: MIC 100%, ROB08704, Study ROC005) of 64 µg/mL (≈ 167 µM), an MIC (read-out: MIC 100%, ROB08704, Study ROC006) of 64 µg/mL (≈ 167 µM) and an MIC (read-out: MIC 100%, ROB08704, Study ROC007) of 64 µg/mL (≈ 167 µM). The MIC (read-out: MIC 100%, ROB08704, Study ROC008) was 64 µg/mL (≈ 167 µM) and the MIC (read-out: MIC 100%, ROB08704, Study ROC009) was 32 µg/mL (≈ 83.4 µM).
